Measured values taken from US6436962B1, “Arylhydantoin derivatives and uses thereof” (Merck & Co., Inc., priority 1999, dated 2002).
pKi: −log10 of the molar value. Structures can show the parent of a compound that is named as a salt.

Tests used:
[1] = target: T1, human alpha 1a adrenergic receptor (Homo sapiens, UniProt P35348); experiment: Screening assay: alpha 1a adrenergic receptor binding ([125I]-HEAT competition); details: membranes from stably transfected human alpha 1a cell line (ATCC CRL 11140), 100 pM [125I]-HEAT
T1 sequence (P35348 1-466): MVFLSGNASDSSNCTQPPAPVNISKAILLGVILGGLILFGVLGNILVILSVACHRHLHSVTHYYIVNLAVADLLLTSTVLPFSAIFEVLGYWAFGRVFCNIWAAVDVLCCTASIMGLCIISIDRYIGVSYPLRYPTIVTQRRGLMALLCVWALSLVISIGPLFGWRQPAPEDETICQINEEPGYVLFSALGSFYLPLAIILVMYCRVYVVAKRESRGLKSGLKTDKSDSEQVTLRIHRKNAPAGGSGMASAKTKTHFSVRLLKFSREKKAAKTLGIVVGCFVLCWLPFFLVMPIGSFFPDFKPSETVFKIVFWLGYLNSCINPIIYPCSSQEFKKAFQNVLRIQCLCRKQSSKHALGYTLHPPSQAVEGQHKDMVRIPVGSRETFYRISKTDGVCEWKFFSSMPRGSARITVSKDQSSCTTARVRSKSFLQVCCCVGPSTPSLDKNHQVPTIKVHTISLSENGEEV
Description: Screening Assay: Alpha 1a Adrenergic Receptor Binding
These competition binding reactions (total volume=200 μl) contained 50 mM Tris-HCl pH. […] Reactions were incubated at room temperature for one hour with shaking. Reactions were filtered onto Whatman GF/C glass fiber filters with a Inotec 96 well cell harvester. Filters were washed three times with ice cold buffer and bound radioactivity was determined (Ki).

Row | Structure (SMILES) | melting point [°C] | pKi [1]
1 | Cc1ccc(C2(c3ccc(C)cc3)NC(=O)N(CCCN3CCC4(CC3)C(=O)Nc3ccccc34)C2=O)cc1 (as salt: hydrochloride) [Compound 21, 3-{3-(spiro[3H-indole-3,4′-piperidin]-2(1H)-on-1′-yl)propyl}-5,5-bis(4-methylphenyl)-imidazolin-2,4-dione hydrochloride] | > 210 | –
2 | CC1(c2ccccc2)NC(=O)N(CCCN2CCC(C#N)(c3ccccc3)CC2)C1=O (racemic) (as salt: hydrochloride) | 222 to 223 | –
3 | CCCCCC1(c2ccc(C)cc2)NC(=O)N(CCCN2CCC(C#N)(c3ccccc3C)CC2)C1=O (racemic) [Compound 16] | – | > 7.70
4 | CCCCCC1(c2ccc(F)c(F)c2)NC(=O)N(CCCN2CCC(C#N)(c3ccccc3C)CC2)C1=O (racemic) [Compound 17, (+/−)-3-{3-[4-(2-methylphenyl)-4-cyanopiperidin-1-yl]propyl}-5-pentyl-5-(3,4-difluoro-phenyl)-imdazolin-2,4-dione hydrochloride] | – | > 7.70
5 | Cc1ccc(C2(c3ccc(C)cc3)NC(=O)N(CCCN3CCC4(CC3)C(=O)Cc3ccccc34)C2=O)cc1 [Compound 5, 3-{3-(2,3-dihydro-spiro[indeno-1,4′-piperidin]-2(3H)-on-1′-yl)propyl}-5,5-bis(4-methylphenyl)-imidazolin-2,4-dione] | – | > 7.70
6 | Cc1ccc(C2(c3ccc(C)cc3)NC(=O)N(CCCN3CCC4(CC3)OC(=O)Nc3ccccc34)C2=O)cc1 [Compound 6, 3-{3-(spiro[4H-3,1-benzoxazine-4,4′-piperidin]-2(1H)-on-1′-yl)propyl}-5,5-bis(4-methylphenyl)-imidazolin-2,4-dione] | – | > 7.70
7 | Cc1ccc(C2(c3ccc(C)cc3)NC(=O)N(CCCN3CCC4(CC3)OC(=O)Nc3ccc(Cl)cc34)C2=O)cc1 [Compound 7, 3-{3-(6-chloro-spiro[4H-3,1-benzoxazine-4,4′-piperidin]-2(1H)-on-1′-yl)propyl}-5,5-bis(4-methylphenyl)-imidazolin-2,4-dione] | – | > 7.70
8 | Cc1ccc(C2(c3ccc(C)cc3)NC(=O)N(CCCN3CCC4(CC3)OC(=O)N(C)c3ccc(Cl)cc34)C2=O)cc1 [Compound 8, 3-{3-(1-methyl-6-chloro-spiro[4H-3,1-benzoxazine-4,4′-piperidin]-2(1H)-on-1′yl)propyl}5,5-bis(4-methylphenyl)-imidazolin-2,4-dione] | – | > 7.70
9 | Cc1ccc(C2(c3ccc(C)cc3)NC(=O)N(CCCN3CCC4(CC3)OC(=O)N(C)c3ccccc34)C2=O)cc1 [Compound 9] | – | > 7.70
10 | N#CC1(c2ccccc2)CCN(CCCN2C(=O)NC(c3ccc(Cl)cc3)(c3ccc(Cl)cc3)C2=O)CC1 [Compound 10, 3-{3-[4-phenyl-4-cyanopiperidin-1-yl]propyl}-5,5-bis(4-chlorophenyl)-imidazolin-2,4-dione hydrochloride] | – | > 7.70
11 | CN1C(=O)OC2(CCN(CCCN3C(=O)NC(c4ccc(Cl)cc4)(c4ccc(Cl)cc4)C3=O)CC2)c2cc(Cl)ccc21 [Compound 14, 3-{3-(1-methyl-6-chloro-spiro[4H-3,1-benzoxazine-4,4′-piperidin]-2(1H)-on-1′-yl)propyl}1-5,5-bis(4-chlorophenyl)-imidazolin-2,4-dione] | – | > 7.70
12 | Cc1ccc(C2(c3ccc(C)cc3)NC(=O)N(CCCN3CCC4(CC3)C(=O)Nc3ccccc34)C2=O)cc1 [Compound 21, 3-{3-(spiro[3H-indole-3,4′-piperidin]-2(1H)-on-1′-yl)propyl}-5,5-bis(4-methylphenyl)-imidazolin-2,4-dione hydrochloride] | – | > 7.70
13 | Cc1ccc(C2(c3ccc(C)cc3)NC(=O)N(CCCN3CCC4(CC3)OC(=O)Nc3ccc(F)cc34)C2=O)cc1 [Compound 23, 3-{3-(6-fluoro-spiro[4H-3,1-benzoxazine4,4′-piperidin]-2(1H)-on-1′-yl)propyl}bis(4-methylphenyl)-imidazolin-2,4-dione] | – | > 7.70

The next lines start with the values.

Row | melting point [°C] | pKi [1] | Structure (SMILES)
14 | 53 to 55 | – | COCN1C(=O)N(CCCN2CCC(C#N)(c3ccccc3C)CC2)C(=O)C1(c1ccc(C)cc1)c1ccc(C)cc1
15 | 160 to 163 | – | Cc1ccc(C2(c3ccc(C)cc3)NC(=O)N(CCCN3CCN(c4ccccc4C(N)=O)CC3)C2=O)cc1 (as salt: hydrochloride) [Compound 25, 3-{3-[4-(2-aminocarbonylphenyl)-piperazin-1-yl]propyl}-5,5-bis(4-methylphenyl)-imidazolin-2,4-dione dihydrochloride]
16 | 236 | – | Cc1ccc(C2(c3ccc(C)cc3)NC(=O)N(CCCN3CCN(c4ccccc4C#N)CC3)C2=O)cc1 (as salt: hydrochloride) [Compound 27, 3-{3-[4-(2-cyanophenyl)-piperazin-1-yl]propyl}-5,5-bis(4-methylphenyl)-imidazolin-2,4-dione hydrochloride]
17 | 160 to 163 | – | COC(=O)C1CN(CCCN2C(=O)NC(c3ccc(C)cc3)(c3ccc(C)cc3)C2=O)CCC1Nc1ccccc1Cl.Cl (racemic)
18 | – | > 7.70 | Cc1ccc(C2(c3ccccc3)NC(=O)N(CCCN3CCC(C#N)(c4ccccc4)CC3)C2=O)cc1 (racemic) [Compound 11, (+/−)-3-{3-[4-phenyl4-cyanopiperidin-1-yl]propyl-}5-(4-methylphenyl)-5-phenyl-imidazolin-2,4-dione trifluoroacetate]
19 | – | > 7.70 | Cc1ccc(C2(c3ccccn3)NC(=O)N(CCCN3CCC(C#N)(c4ccccc4C)CC3)C2=O)cc1 (racemic) [Compound 13, (+/−)-3-{3-[4-(2-methylphenyl)-4-cyanopiperidin-1-yl]propyl}-5-(4-methylphenyl)-5-(2-pyridyl)-imidazolin-2,4-dione]
20 | – | > 7.70 | Cc1ccc(C2(C(C)C)NC(=O)N(CCCN3CCC(C#N)(c4ccccc4C)CC3)C2=O)cc1 (racemic) [Compound 31, (+/−)-3-{3-[4-(2-methylphenyl)4-cyanopiperidin-1-yl]propyl}-5-isopropyl-5-(4-methylphenyl)-imidazolin-2,4-dione hydrochloride]
21 | – | > 7.70 | Cc1ccc(C2(c3ccc(C)cc3)NC(=O)N(CCCN3CCC(C#N)(c4ccccc4)CC3)C2=O)cc1 [Compound 1, 3-[3-(4-Phenyl-4-cyanopiperidin-1-yl)propyl]-5,5-bis(4-methylphenyl)-imidazolin-2,4-dione]
22 | – | > 7.70 | Cc1ccc(C2(c3ccc(C)cc3)NC(=O)N(CCCN3CCC(c4ccccn4)CC3)C2=O)cc1 [Compound 3, 3-{3-[4-(2-Pyridyl)piperidin-1-yl]propyl}-5,5-bis(4-methylphenyl)-imidazolin-2,4-dione]
23 | – | > 7.70 | Cc1ccc(C2(c3ccc(C)cc3)NC(=O)N(CCCN3CCC4(C=Cc5ccccc54)CC3)C2=O)cc1 [Compound 4, 3-{3-(spiro[1H-indeno-1,4′-piperidin]-1′-yl)propyl}-5,5-bis(4-methylphenyl)-imidazolin-2,4-dione]
24 | – | > 7.70 | Cc1ccccc1C1(C#N)CCN(CCCN2C(=O)NC(c3ccc(F)cc3)(c3ccc(F)cc3)C2=O)CC1 [Compound 12, 3-{3-[4-(2-methylphenyl)-4-cyanopiperidin-1-yl]propyl}-5,5-bis(4-fluorophenyl)-imidazolin-2,4-dione hydrochloride]
25 | – | > 7.70 | Cc1ccc(C2(c3ccc(C)cc3)NC(=O)N(CCCN3CCN(c4ccccc4C(N)=O)CC3)C2=O)cc1 [Compound 25, 3-{3-[4-(2-aminocarbonylphenyl)-piperazin-1-yl]propyl}-5,5-bis(4-methylphenyl)-imidazolin-2,4-dione dihydrochloride]
26 | – | > 7.70 | Cc1ccc(C2(c3ccc(C)cc3)NC(=O)N(CCCN3CCC(c4ccc(F)cc4C#N)CC3)C2=O)cc1 [Compound 26]
27 | – | > 7.70 | Cc1ccc(C2(c3ccc(C)cc3)NC(=O)N(CCCN3CCN(c4ccccc4C#N)CC3)C2=O)cc1 [Compound 27, 3-{3-[4-(2-cyanophenyl)-piperazin-1-yl]propyl}-5,5-bis(4-methylphenyl)-imidazolin-2,4-dione hydrochloride]
28 | – | > 7.70 | Cc1ccc(C2(c3ccc(C)cc3)NC(=O)N(CCCCN3CCC4(C=Cc5ccccc54)CC3)C2=O)cc1 [Compound 28, 3-{4-(spiro[indeno-1,4′-piperidin]-1′-yl)butyl}-5,5-bis(4-methylphenyl)-imidazolin-2,4-dione]
29 | – | > 7.70 | Cc1ccc(C2(c3ccc(C)cc3)NC(=O)N(CCCN3CCC4(CC3)OC(=O)N(CC(F)(F)F)c3ccc(Cl)cc34)C2=O)cc1 [Compound 29, 3-{3-[1-(2,2,2-trifluoroethyl)-6-chloro-spiro[4H-3,1-benzoxazine-4,4′-piperidin]-2(1H)-on-1′-yl]propyl}-5,5-bis(4-methylphenyl)-imidazolin-2,4-dione]
30 | 144 to 155 | – | Cc1ccc(C2(c3ccc(C)cc3)NC(=O)N(CCCN3CCC(n4c(=O)[nH]c5cc(Cl)ccc54)CC3)C2=O)cc1 [Compound 34, 3-{3-[4-(5-chloro-2-oxo-1-benzimidazolinyl)piperidin-1-yl]propyl}-5,5-bis(4-methylphenyl)-imidazolin-2,4-dione]
31 | – | > 7.70 | Cc1ccc(C2(c3ccc(C)cc3)C(=O)N(CCCN3CCC(C#N)(c4ccccc4C)CC3)C(=O)N2C)cc1 [Compound 36, 1-Methyl-3-{3-[4-(2-methylphenyl)-4-cyanopiperidin-1-yl]propyl}-bis-5,5-(4-methylphenyl)-imidazolin-2,4-dione]
